In brackets after ≈: the same amount, converted by molar mass.
Key:
Type in all cases: cell-based
[1] = tested on: M. abscessus (ATCC 19977); test: MIC by broth microdilution, M. abscessus in cation adjusted Mueller Hinton broth; settings: Mycobacteroides abscessus, ATCC19977, 96 h; ATCC 19977; cation adjusted Mueller Hinton broth without growth supplement; 30° C., 4 days; read-out: MIC M. abscessus MH
How it was run: (§1)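 CLSI broth microdilution in cation-adjusted Mueller Hinton broth, 5×10^5 CFU/mL inoculum; ADC (5%) added for M. avium and M. xenopi (M. xenopi inoculum from 7H9+ADC liquid culture). Two-fold series 16–0.016 μg/mL (M. abscessus, M. avium), 1–6×10^−5 μg/mL (M. xenopi); S. aureus 35° C 20 h, M. abscessus 30° C 4 days, others 37° C ≥7 days; MIC = lowest concentration without visible growth.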

[2] = tested on: S. aureus (UAMS-1625 strain); test: MIC by broth microdilution, S. aureus; settings: Staphylococcus aureus, 20 h, read-out: MIC S. aureus
How it was run: as §1

M. kansasii (ATCC 12478) = test: MIC by broth microdilution, M. kansasii; settings: Mycobacterium kansasii, ATCC12478, 168 h, cation adjusted Mueller Hinton broth + ADC (5%), 37° C., 7 days (at least)
Protocol: (§2) MIC values were determined by broth microdilution method according to the CLSI guidelines with the following exceptions: MIC against A. baumannii was performed in RPMI medium supplemented with 10% FCS and MIC against M. abscessus was performed in Middlebrook 7H9 broth supplemented with Middlebrook ADC growth supplement (10%; see column “M. abscessus 7H9”). MIC forM abscessus was determined a second time in standard cation adjusted Mueller Hinton broth without growth supplement (see colum “M. abscessus MH”). All other MIC were performed in standard cation adjusted Mueller Hinton broth, supplemented with Middlebrook ADC growth supplement (5%) for the slow growing mycobacteria (M. xenopi, M. kansasii and M. avium).
(§3) The following procedure applies to all species tested, except forM xenopi. From a fresh culture plate (from overnight to several days depending on the bacteria), cells were resuspended in 0.9% (w/v) saline solution and bacterial inoculum was prepared in the respective testing medium with 5×10^5 CFU/mL. For M. xenopi, the inoculum was prepared from a fresh liquid culture (7H9+ADC). The appropriate volumes of a 10 mg/mL compound solution were directly dispensed in the 96-well assay plate using a digital dispenser to create two-fold dilution series from 32 to 0.002 μg/mL final concentration for A. baumannii and S. aureus; from 16 to 0.016 μg/mL for M. abscessus and M. avium; and from 1 to 6×10^−5 μg/mL for M. kansasii and M. xenopi. 100 μL of bacterial suspension was finally added to the compounds. Plates were covered and incubated without shaking at 35° C. for 20 hours for A. baumanii and S. aureus; at 30° C. for 4 days for M. abscessus; and at 37° C. for 7 days (at least) for M. kansasii (covered with aluminum foil to avoid light exposure), M. avium and M. xenopi. Every experiment contained an antibiotic as quality control. MIC was determined visually as the lowest concentration of a compound that prevents visible growth of the bacteria.
(§4) The in vitro activity of compounds described herein was determined against S. aureus (UAMS-1625 strain), A. baumannii (HUMC1 strain), M. abscessus (ATCC 19977), M. kansasii (ATCC 12478), M. avium (ATCC 25291), and M. xenopi (ATCC 19250).

M. xenopi (ATCC 19250) = test: MIC by broth microdilution, M. xenopi; settings: Mycobacterium xenopi, ATCC19250, 168 h, cation adjusted Mueller Hinton broth + ADC (5%), 37° C., 7 days (at least)
Protocol: as §2, §3, §4

[3] = tested on: M. abscessus (ATCC 19977); test: MIC by broth microdilution, M. abscessus in Middlebrook 7H9 broth + ADC; settings: Mycobacteroides abscessus, ATCC19977, 96 h; ATCC 19977; Middlebrook 7H9 broth + ADC growth supplement (10%); 30° C., 4 days; read-out: MIC M. abscessus 7H9
Protocol: as §2, §3, §4

M. avium (ATCC 25291) = test: MIC by broth microdilution, M. avium; settings: Mycobacterium avium, ATCC25291, 168 h, cation adjusted Mueller Hinton broth + ADC (5%), 37° C., 7 days (at least)
Protocol: as §2, §3, §4

[4] = tested on: A. baumannii (HUMC1 strain); test: MIC by broth microdilution, A. baumannii (RPMI + 10% FCS); settings: Acinetobacter baumannii; HUMC1 strain; RPMI medium + 10% FCS; 35° C., 20 hours; read-out: MIC A. baumannii

SMILES	MIC [1] [µg/mL]	MIC [2] [µg/mL]	MIC (M. kansasii (ATCC 12478)) [µg/mL]	MIC (M. xenopi (ATCC 19250)) [µg/mL]	MIC [3] [µg/mL]	MIC (M. avium (ATCC 25291)) [µg/mL]	MIC [4] [µg/mL]
CO[C@H]1/C=C/O[C@@]2(C)Oc3c(C)c(O)c4c(c3C2=O)C2=NC3(CCN(CC(C)C)CC3)NC2=C(NC(=O)/C(C)=C\C=C\[C@H](C)[C@H](O)[C@@H](C)[C@@H](O)[C@@H](C)[C@H](OC(=O)N2CCN(c3ccccc3)CC2)[C@@H]1C)C4=O [Compound 7]	0.5 (≈ 0.503 µM)	0.5 (≈ 0.503 µM)	0.001	0.008	0.125	0.25	0.125
CO[C@H]1/C=C/O[C@@]2(C)Oc3c(C)c(O)c4c(c3C2=O)C2=NC3(CCN(CC(C)C)CC3)NC2=C(NC(=O)/C(C)=C\C=C\[C@H](C)[C@H](O)[C@@H](C)[C@@H](O)[C@@H](C)[C@H](OC(=O)N2CCN(c3ccccn3)CC2)[C@@H]1C)C4=O [Compound 8]	0.5 (≈ 0.503 µM)	0.25 (≈ 0.251 µM)	0.0005	0.008	0.125	0.25	0.25
CO[C@H]1/C=C/O[C@@]2(C)Oc3c(C)c(O)c4c(c3C2=O)C2=NC3(CCN(CC(C)C)CC3)NC2=C(NC(=O)/C(C)=C\C=C\[C@H](C)[C@H](O)[C@@H](C)[C@@H](O)[C@@H](C)[C@H](OC(=O)N2CCN(CC3CCCCC3)CC2)[C@@H]1C)C4=O [Compound 9]	0.125 (≈ 0.123 µM)	0.5 (≈ 0.493 µM)	0.0002	0.016	0.06	0.125	0.5
CO[C@H]1/C=C/O[C@@]2(C)Oc3c(C)c(O)c4c(c3C2=O)C2=NC3(CCN(CC(C)C)CC3)NC2=C(NC(=O)/C(C)=C\C=C\[C@H](C)[C@H](O)[C@@H](C)[C@@H](O)[C@@H](C)[C@H](OC(=O)N2CCN(C3CCCCC3)CC2)[C@@H]1C)C4=O [Compound 10]	0.06 (≈ 0.06 µM)	0.25 (≈ 0.25 µM)	0.0002	0.002	0.06	0.06	0.06
CO[C@H]1/C=C/O[C@@]2(C)Oc3c(C)c(O)c4c(c3C2=O)C2=NC3(CCN(CC(C)C)CC3)NC2=C(NC(=O)/C(C)=C\C=C\[C@H](C)[C@H](O)[C@@H](C)[C@@H](O)[C@@H](C)[C@H](OC(=O)NC2CCN(Cc3ccccc3)CC2)[C@@H]1C)C4=O [Compound 14]	0.25 (≈ 0.245 µM)	0.125 (≈ 0.122 µM)	0.0005	0.008	0.25	0.25	0.004

Reference: patent US20260234161A1, “RIFABUTIN ANALOGS FOR THE TREATMENT OF BACTERIAL DISEASES” (BIOVERSYS AG, priority 2023, published 2026)
